According to patent US20080306056A1, “PYRAZOLE-DERIVATIVES AS FACTOR Xa INHIBITORS” (SANOFI-AVENTIS DEUTSCHLAND GMBH, priority 2002, published 2008):

Target: T1, human factor Xa (Homo sapiens, UniProt P00742)
T1 construct: 25 μl human factor Xa (Enzyme Research Laboratories, Inc; South Bend, Ind.); purchased Enzyme Research Laboratories, Inc; South Bend, Ind
Assay: Factor Xa assay (chromogenic, purified enzyme)
Format: biochemical
Conditions: inhibition constant for factor Xa; chromogenic substrate S-2765 140 μM, enzyme 0.5 nM, 25° C., pH 7.8; Ki=IC50/{1+(substrate concentration/Km)}; read-out: Ki(FXa)
Description: The ability of the compound of formulae I, Ib and Ic to inhibit factor Xa or factor VIIa or other enzymes like thrombin, plasmin, or trypsin can be assessed by determining the concentration of the compound of the formulae I, Ib and Ic that inhibits enzyme activity by 50%, i.e. the IC50 value, which was related to the inhibition constant Ki. Purified enzymes were used in chromogenic assays. The concentration of inhibitor that causes a 50% decrease in the rate of substrate hydrolysis was determined by linear regression after plotting the relative rates of hydrolysis (compared to the uninhibited control) versus the log of the concentration of the compound of formulae I, Ib and Ic. For calculating the inhibition constant Ki, the IC50 value was corrected for competition with substrate using the formula wherein Km is the Michaelis-Menten constant (Chen and Prusoff, Biochem.
Ki=IC50/{1+(substrate concentration/Km)}
Pharmacol. 22 (1973) 3099-3108; I. H. Segal, Enzyme Kinetics, 1975, John Wiley & Sons, New York, 100-125; which were incorporated herein by reference).
The IC50 was determined by combining in appropriate wells of a Costar half-area microtiter plate 25 μl human factor Xa (Enzyme Research Laboratories, Inc.; South Bend, Ind.) in TBS-PEG; 40 μl 10% (v/v) DMSO in TBS-PEG (uninhibited control) or various concentrations of the compound to be tested diluted in 10% (v/v) DMSO in TBS-PEG; and substrate S-2765 (N(α)-benzyloxycarbonyl-D-Arg-Gly-L-Arg-p-nitroanilide; Kabi Pharmacia, Inc.; Franklin, Ohio) in TBS-PEG.
The assay was performed by pre-incubating the compound of formulae I, Ib and Ic plus enzyme for 10 min. Then the assay was initiated by adding substrate to obtain a final volume of 100 μl. The initial velocity of chromogenic substrate hydrolysis was measured by the change in absorbance at 405 nm using a Bio-tek Instruments kinetic plate reader (Ceres UV900HDi) at 25° C. during the linear portion of the time course (usually 1.5 min after addition of substrate). The enzyme concentration was 0.5 nM and substrate concentration was 140 μM.
The inhibitory activity towards factor VIIa/tissue factor activity was determined using a chromogenic assay essentially as described previously (J. A. Ostrem et al., Biochemistry 37 (1998) 1053-1059 which was incorporated herein by reference). Kinetic assays were conducted at 25° C. in half-area microtiter plates (Costar Corp., Cambridge, Mass.) using a kinetic plate reader (Molecular Devices Spectramax 250). A typical assay consisted of 25 μl human factor VIIa and TF (5 nM and 10 nM, respective final concentration) combined with 40 μl of inhibitor dilutions in 10% DMSO/TBS-PEG buffer (50 mM Tris, 15 mM NaCl, 5 mM CaCl2, 0.05% PEG 8000, pH 8.15). Following a 15 minute preincubation period, the assay was initiated by the addition of 35 μl of the chromogenic substrate S-2288 (D-Ile-Pro-Arg-p-nitroanilide, Pharmacia Hepar Inc., 500 μM final concentration).

T1 sequence (P00742 235-488 limits assumed): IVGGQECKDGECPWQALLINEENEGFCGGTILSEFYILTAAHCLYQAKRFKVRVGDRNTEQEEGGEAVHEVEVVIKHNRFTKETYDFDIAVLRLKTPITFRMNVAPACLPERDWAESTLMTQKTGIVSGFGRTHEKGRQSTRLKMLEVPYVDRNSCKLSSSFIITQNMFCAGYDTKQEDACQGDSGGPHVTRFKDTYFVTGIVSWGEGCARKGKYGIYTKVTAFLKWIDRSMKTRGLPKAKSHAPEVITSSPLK
T1 sequence (P00742 41-179 partner limits assumed): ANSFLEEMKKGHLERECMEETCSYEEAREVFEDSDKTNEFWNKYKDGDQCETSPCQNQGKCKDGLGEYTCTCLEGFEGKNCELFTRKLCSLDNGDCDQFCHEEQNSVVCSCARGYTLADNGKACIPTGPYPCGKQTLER

Row | Compound | Ki
1 | CC(C)N1CCC(NC(=O)c2cc(C(=O)OCCN3CCNC3=O)nn2Cc2cc(-c3ccc(Cl)s3)on2)CC1 [Example 32, 1-[5-(5-Chloro-thiophen-2-yl)-isoxazol-3-ylmethyl]-5-(1-isopropyl-piperidin-4-ylcarbamoyl)-1H-pyrazole-3-carboxylic acid 2-(2-oxo-imidazolidin-1-yl)-ethyl ester] | 45 nM
2 | COC[C@H]1CC[C@H](COC)N1C(=O)c1cc(C(=O)NC2CCN(C(C)C)CC2)n(Cc2cc(-c3ccc(Cl)s3)on2)n1 [Example 67, 5-(2R,5R,2,5-Bis-methoxymethyl-pyrrolidine-1-carbonyl)-2-[5-(5-chloro-thiophen-2-yl)-isoxazol-3-ylmethyl]-2H-pyrazole-3-carboxylic acid (1-isopropyl-piperidin-4-yl)-amide] | 420 nM
3 | CC(C)N1CCC(NC(=O)c2cc(C(=O)NCCS(N)(=O)=O)n(Cc3cc(-c4ccc(Cl)s4)on3)n2)CC1 [Example 87, 1-[5-(5-Chloro-thiophen-2-yl)-isoxazol-3-ylmethyl]-1H-pyrazole-3,5-dicarboxylic acid 3-[(1-isopropyl-piperidin-4-yl)-amide] 5-[(2-sulfamoyl-ethyl)-amide]] | 181 nM
4 | CCCc1cc(C(=O)NC2CCN(C(C)C)CC2)n(Cc2cc(-c3ccc(Cl)s3)on2)n1 [Example 8, 2-[5-(5-Chloro-thiophen-2-yl)-isoxazol-3-ylmethyl]-5-propyl-2H-pyrazole-3-carboxylic acid (1-isopropyl-piperidin-4-yl)-amide] | 54 nM
5 | CCCc1c(C#N)c(C(=O)NC2CCN(C(C)C)CC2)nn1Cc1cc(-c2ccc(Cl)s2)on1 [Example 11, 1-[5-(5-Chloro-thiophen-2-yl)-isoxazol-3-ylmethyl]-4-cyano-5-propyl-1H-pyrazole-3-carboxylic acid (1-isopropyl-piperidin-4-yl)-amide] | 83 nM
6 | CC(C)N1CCC(NC(=O)c2cc(C(=O)N3CCCOCC3)nn2CC(=O)Nc2ccc(Cl)cn2)CC1 [Example 108, 2-[(5-Chloro-pyridin-2-ylcarbamoyl)-methyl]-5-([1,4]oxazepane-4-carbonyl)-2H-pyrazole-3-carboxylic acid (1-isopropyl-piperidin-4-yl)-amide] | 39 nM
7 | CC(C)N1CCC(NC(=O)c2cc(C(=O)OCC3CC3)nn2CC(=O)Nc2ccc(Cl)cn2)CC1 [Example 96, 1-[(5-Chloro-pyridin-2-ylcarbamoyl)-methyl]-5-(1-isopropyl-piperidin-4-ylcarbamoyl)-1H-pyrazole-3-carboxylic acid cyclopropylmethyl ester] | 18 nM
8 | CCOC(=O)C1CCN(C(=O)c2cc(C(=O)NC3CCN(C(C)C)CC3)n(Cc3cc(-c4ccc(Cl)s4)on3)n2)CC1 [Example 69, 1-[1-[5-(5-Chloro-thiophen-2-yl)-isoxazol-3-ylmethyl]-5-(1-isopropyl-piperidin-4-ylcarbamoyl)-1H-pyrazole-3-carbonyl]-piperidine-4-carboxylic acid ethyl ester] | 177 nM
9 | CC(C)N1CCC(NC(=O)c2cc(C(=O)N3CC(O)C3)nn2CC(=O)Nc2ccc(Cl)cn2)CC1 [Example 95, 2-[(5-Chloro-pyridin-2-ylcarbamoyl)-methyl]-5-(3-hydroxy-azetidine-1-carbonyl)-2H-pyrazole-3-carboxylic acid (1-isopropyl-piperidin-4-yl)-amide] | 39 nM
10 | COCCN(CCOC)C(=O)c1cc(C(=O)NC2CCN(C(C)C)CC2)n(Cc2cc(-c3ccc(Cl)s3)on2)n1 [Example 31, 1-[5-(5-Chloro-thiophen-2-yl)-isoxazol-3-ylmethyl]-1H-pyrazole-3,5-dicarboxylic acid 3-[bis-(2-methoxy-ethyl)-amide] 5-[(1-isopropyl-piperidin-4-yl)-amide]] | 180 nM
11 | CC(C)N1CCC(NC(=O)c2cc(C(=O)NC3CC3)nn2Cc2cc(-c3ccc(Cl)s3)on2)CC1 [Example 45, 1-[5-(5-Chloro-thiophen-2-yl)-isoxazol-3-ylmethyl]-1H-pyrazole-3,5-dicarboxylic acid 3-cyclopropylamide 5-[(1-isopropyl-piperidin-4-yl)-amide]] | 61 nM
12 | CCOC(=O)C(NC(=O)c1cc(C(=O)NC2CCN(C(C)C)CC2)n(Cc2cc(-c3ccc(Cl)s3)on2)n1)C(C)C (stereo not drawn) [Example 97, 2-{[1-[5-(5-Chloro-thiophen-2-yl)-isoxazol-3-ylmethyl]-5-(1-isopropyl-piperidin-4-ylcarbamoyl)-1H-pyrazole-3-carbonyl]-amino}-3-methyl-butyric acid ethyl ester] | 228 nM
13 | CC(C)N1CCC(NC(=O)c2cc(C(=O)N3CCC(O)CC3)nn2Cc2cc(-c3ccc(Cl)s3)on2)CC1 [Example 35, 2-[5-(5-Chloro-thiophen-2-yl)-isoxazol-3-ylmethyl]-5-(4-hydroxy-piperidine-1-carbonyl)-2H-pyrazole-3-carboxylic acid (1-isopropyl-piperidin-4-yl)-amide] | 163 nM
14 | CC(C)N1CCC(NC(=O)c2cc(C(=O)N(C)CC(=O)O)nn2Cc2cc(-c3ccc(Cl)s3)on2)CC1 [Example 33, {[1-[5-(5-Chloro-thiophen-2-yl)-isoxazol-3-ylmethyl]-5-(1-isopropyl-piperidin-4-ylcarbamoyl)-1H-pyrazole-3-carbonyl]-methyl-amino}-acetic acid] | 82 nM
15 | CC(C)N1CCC(NC(=O)c2cc(C(=O)N3CCN(CCO)CC3)nn2Cc2cc(-c3ccc(Cl)s3)on2)CC1 [Example 30, 2-[5-(5-Chloro-thiophen-2-yl)-isoxazol-3-ylmethyl]-5-[4-(2-hydroxy-ethyl)-piperazine-1-carbonyl]-2H-pyrazole-3-carboxylic acid (1-isopropyl-piperidin-4-yl)-amide] | 262 nM
16 | CC(C)N1CCC(NC(=O)c2cc(C(=O)NCC(F)(F)F)nn2Cc2cc(-c3ccc(Cl)s3)on2)CC1 [Example 74, 1-[5-(5-Chloro-thiophen-2-yl)-isoxazol-3-ylmethyl]-1H-pyrazole-3,5-dicarboxylic acid 5-[(1-isopropyl-piperidin-4-yl)-amide] 3-[(2,2,2-trifluoro-ethyl)-amide]] | 86 nM
17 | CC(C)N1CCC(NC(=O)c2cc(C(=O)N3CCC[C@H]3CO)nn2Cc2cc(-c3ccc(Cl)s3)on2)CC1 [Example 64, 2-[5-(5-Chloro-thiophen-2-yl)-isoxazol-3-ylmethyl]-5-(2S,2-hydroxymethyl-pyrrolidine-1-carbonyl)-2H-pyrazole-3-carboxylic acid (1-isopropyl-piperidin-4-yl)-amide] | 90 nM
18 | CONC(=O)c1cc(C(=O)NC2CCN(C(C)C)CC2)n(Cc2cc(-c3ccc(Cl)s3)on2)n1 [Example 59, 1-[5-(5-Chloro-thiophen-2-yl)-isoxazol-3-ylmethyl]-1H-pyrazole-3,5-dicarboxylic acid 5-[(1-isopropyl-piperidin-4-yl)-amide] 3-(methoxy-amide)] | 94 nM
19 | CC(C)N1CCC(NC(=O)c2cc(C(=O)N3CCC(S(C)(=O)=O)C3)nn2Cc2cc(-c3ccc(Cl)s3)on2)CC1 (stereo not drawn) [Example 39, 2-[5-(5-Chloro-thiophen-2-yl)-isoxazol-3-ylmethyl]-5-(3-methanesulfonyl-pyrrolidine-1-carbonyl)-2H-pyrazole-3-carboxylic acid (1-isopropyl-piperidin-4-yl)-amide] | 145 nM
20 | CC(C)N1CCC(NC(=O)c2cc(C(=O)NCCN3CCNC3=O)nn2Cc2cc(-c3ccc(Cl)s3)on2)CC1 [Example 73, 1-[5-(5-Chloro-thiophen-2-yl)-isoxazol-3-ylmethyl]-1H-pyrazole-3,5-dicarboxylic acid 5-[(1-isopropyl-piperidin-4-yl)-amide] 3-{[2-(2-oxo-imidazolidin-1-yl)-ethyl]-amide}] | 83 nM
21 | CNC(=O)c1cc(C(=O)NC2CCN(C(C)C)CC2)n(Cc2cc(-c3ccc(Cl)s3)on2)n1 [Example 26, 1-[5-(5-Chloro-thiophen-2-yl)-isoxazol-3-ylmethyl]-1H-pyrazole-3,5-dicarboxylic acid 5-[(1-isopropyl-piperidin-4-yl)-amide] 3-methylamide] | 68 nM
